# Target: T1, human cathepsin S (CatS) (Homo sapiens, UniProt P25774)
# T1 construct: made in house; host or cells: baculovirus system (insect cells)
# Test: Recombinant human cathepsin S (CatS) fluorogenic substrate inhibition assay
# Type: biochemical
# Details: recombinant human CatS, 10 μM Z-Valine-Valine-Arginine-AMC, pH 5.0; average of results obtained; read-out: CatS IC50
# Protocol: Recombinant human cathepsin S (CatS) was expressed in the baculovirus system and purified in one step with a thiopropyl-sepharose column. […] The assay is run in 150 mM sodium acetate pH 5.0 containing 1.5 mM DTT and 150 mM NaCl. […] Measurements are taken every min for 20 min. The rate is calculated from the slope of the increase in fluorescence and the percent inhibition is calculated from this.
# T1 sequence (P25774 115-331): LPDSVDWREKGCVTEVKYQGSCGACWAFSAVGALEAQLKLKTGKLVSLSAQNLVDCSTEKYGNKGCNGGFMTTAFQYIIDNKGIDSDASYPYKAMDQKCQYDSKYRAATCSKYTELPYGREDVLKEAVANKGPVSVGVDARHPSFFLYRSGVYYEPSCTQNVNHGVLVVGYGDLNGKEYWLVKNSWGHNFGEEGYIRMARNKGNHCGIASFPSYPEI
row,IC50 [µM],SMILES
1,0.03,"CS(=O)(=O)N1CCc2c(c(-c3ccc(C(F)(F)F)c(CNC(=O)c4cc5c(s4)CCC5)c3)nn2CC(O)CN2CCC(N3CCCC3=O)CC2)C1 (stereo not drawn) [Example 50, 5,6-Dihydro-4H-cyclopenta[b]thiophene-2-carboxylic acid 5-(1-{2-hydroxy-3-[4-(2-oxo-pyrrolidin-1-yl)-piperidin-1-yl]-propyl}-5-methanesulfonyl-4,5,6,7-tetrahydro-1H-pyrazolo[4,3-c]pyridin-3-yl)-2-trifluoromethyl-benzylamide]"
2,0.2,"Cc1nnsc1C(=O)NCc1cc(-c2nn(CC(O)CN3CCC(N4CCCC4=O)CC3)c3c2CN(S(C)(=O)=O)CC3)ccc1C(F)(F)F (stereo not drawn) [Example 51, 4-Methyl-[1,2,3]thiadiazole-5-carboxylic acid 5-(1-{2-hydroxy-3-[4-(2-oxo-pyrrolidin-1-yl)-piperidin-1-yl]-propyl}-5-methanesulfonyl-4,5,6,7-tetrahydro-1H-pyrazolo[4,3-c]pyridin-3-yl)-2-trifluoromethyl-benzylamide]"
3,0.19,"CS(=O)(=O)N1CCc2c(c(-c3ccc(C(F)(F)F)c(CNC(=O)c4ccco4)c3)nn2CC(O)CN2CCC(N3CCCC3=O)CC2)C1 (stereo not drawn) [Example 52, Furan-2-carboxylic acid 5-(1-{2-hydroxy-3-[4-(2-oxo-pyrrolidin-1-yl)-piperidin-1-yl]-propyl}-5-methanesulfonyl-4,5,6,7-tetrahydro-1H-pyrazolo[4,3-c]pyridin-3-yl)-2-trifluoromethyl-benzylamide]"
4,0.19,"CS(=O)(=O)N1CCc2c(c(-c3ccc(C(F)(F)F)c(CNC(=O)c4ccccn4)c3)nn2CC(O)CN2CCC(N3CCCC3=O)CC2)C1 (stereo not drawn) [Example 53, Pyridine-2-carboxylic acid 5-(1-{2-hydroxy-3-[4-(2-oxo-pyrrolidin-1-yl)-piperidin-1-yl]-propyl}-5-methanesulfonyl-4,5,6,7-tetrahydro-1H-pyrazolo[4,3-c]pyridin-3-yl)-2-trifluoromethyl-benzylamide]"
5,0.07,"CS(=O)(=O)N1CCc2c(c(-c3ccc(C(F)(F)F)c(CNC(=O)c4ccc(C(F)(F)F)nc4)c3)nn2CC(O)CN2CCC(N3CCCC3=O)CC2)C1 (stereo not drawn) [Example 54, N-[5-(1-{2-Hydroxy-3-[4-(2-oxo-pyrrolidin-1-yl)-piperidin-1-yl]-propyl}-5-methanesulfonyl-4,5,6,7-tetrahydro-1H-pyrazolo[4,3-c]pyridin-3-yl)-2-trifluoromethyl-benzyl]-6-trifluoromethyl-nicotinamide]"
6,0.32,"CS(=O)(=O)N1CCc2c(c(-c3ccc(C(F)(F)F)c(CNC(=O)/C=C/c4ccccc4)c3)nn2CC(O)CN2CCC(N3CCCC3=O)CC2)C1 (stereo not drawn) [Example 55, N-[5-(1-{2-Hydroxy-3-[4-(2-oxo-pyrrolidin-1-yl)-piperidin-1-yl]-propyl}-5-methanesulfonyl-4,5,6,7-tetrahydro-1H-pyrazolo[4,3-c]pyridin-3-yl)-2-trifluoromethyl-benzyl]-3-phenyl-acrylamide]"
7,0.01,"CS(=O)(=O)N1CCc2c(c(-c3ccc(Cl)c(CNC(=O)c4ccc(F)cc4)c3)nn2CC(O)CN2CCC(N3CCCCC3=O)CC2)C1 (stereo not drawn) [Example 72, N-(2-Chloro-5-{1-[2-hydroxy-3-(2-oxo-[1,4′]bipiperidinyl-1′-yl)-propyl]-5-methanesulfonyl-4,5,6,7-tetrahydro-1H-pyrazolo[4,3-c]pyridin-3-yl}-benzyl)-4-fluoro-benzamide]"
8,0.01,"CN(C)c1ccc2c(n1)n(C1CCN(CC(O)Cn3nc(-c4ccc(Cl)c(CNC(=O)c5ccc(F)cc5)c4)c4c3CCN(S(C)(=O)=O)C4)CC1)c(=O)n2C (stereo not drawn) [Example 76, N-[2-Chloro-5-(1-{3-[4-(5-dimethylamino-1-methyl-2-oxo-1,2-dihydroimidazo[4,5-b]pyridin-3-yl)-piperidin-1-yl]-2-hydroxy-propyl}-5-methanesulfonyl-4,5,6,7-tetrahydro-1H-pyrazolo[4,3-c]pyridin-3-yl)-benzyl]-4-fluoro-benzamide]"
9,0.06,"CS(=O)(=O)N1CCc2c(c(-c3ccc(Cl)c(CNC(=O)c4ccc(F)cc4)c3)nn2CC(O)CN2CCC(N3CCOCC3)CC2)C1 (stereo not drawn) [Example 79, N-(2-Chloro-5-{1-[2-hydroxy-3-(4-morpholin-4-yl-piperidin-1-yl)-propyl]-5-methanesulfonyl-4,5,6,7-tetrahydro-1H-pyrazolo[4,3-c]pyridin-3-yl}-benzyl)-4-fluoro-benzamide]"
10,0.06,"CS(=O)(=O)N1CCc2c(c(-c3ccc(C(F)(F)F)c(CNC(=O)c4ccc(F)cc4O)c3)nn2CC(O)CN2CCC(N3CCCC3=O)CC2)C1 (stereo not drawn) [Example 104, 4-Fluoro-2-hydroxy-N-[5-(1-{2-hydroxy-3-[4-(2-oxo-pyrrolidin-1-yl)-piperidin-1-yl]-propyl}-5-methanesulfonyl-4,5,6,7-tetrahydro-1H-pyrazolo[4,3-c]pyridin-3-yl)-2-trifluoromethyl-benzyl]-benzamide]"
11,0.04,"CS(=O)(=O)N1CCc2c(c(-c3ccc(C(F)(F)F)c(CNC(=O)c4cccs4)c3)nn2CC(O)CN2CCC(N3CCCC3=O)CC2)C1 (stereo not drawn) [Example 105, Thiophene-2-carboxylic acid 5-(1-{2-hydroxy-3-[4-(2-oxo-pyrrolidin-1-yl)-piperidin-1-yl]-propyl}-5-methanesulfonyl-4,5,6,7-tetrahydro-1H-pyrazolo[4,3-c]pyridin-3-yl)-2-trifluoromethyl-benzylamide]"
12,0.06,"CS(=O)(=O)N1CCc2c(c(-c3ccc(C(F)(F)F)c(CNC(=O)c4cc5ccccc5s4)c3)nn2CC(O)CN2CCC(N3CCCC3=O)CC2)C1 (stereo not drawn) [Example 106, Benzo[b]thiophene-2-carboxylic acid 5-(1-{2-hydroxy-3-[4-(2-oxo-pyrrolidin-1-yl)-piperidin-1-yl]-propyl}-5-methanesulfonyl-4,5,6,7-tetrahydro-1H-pyrazolo[4,3-c]pyridin-3-yl)-2-trifluoromethyl-benzylamide]"
13,0.07,"CS(=O)(=O)N1CCc2c(c(-c3ccc(C(F)(F)F)c(CNC(=O)c4ccc(CO)cc4)c3)nn2CC(O)CN2CCC(N3CCCC3=O)CC2)C1 (stereo not drawn) [Example 107, 4-Hydroxymethyl-N-[5-(1-{2-hydroxy-3-[4-(2-oxo-pyrrolidin-1-yl)-piperidin-1-yl]-propyl}-5-methanesulfonyl-4,5,6,7-tetrahydro-1H-pyrazolo[4,3-c]pyridin-3-yl)-2-trifluoromethyl-benzyl]-benzamide]"
14,0.08,"CS(=O)(=O)N1CCc2c(c(-c3ccc(C(F)(F)F)c(CNC(=O)CC4CCCC4)c3)nn2CCCN2CCC(N3CCCC3=O)CC2)C1 [Example 108, 2-Cyclopentyl-N-[5-(5-methanesulfonyl-1-{3-[4-(2-oxo-pyrrolidin-1-yl)-piperidin-1-yl]-propyl}-4,5,6,7-tetrahydro-1H-pyrazolo[4,3-c]pyridin-3-yl)-2-trifluoromethyl-benzyl]-acetamide]"
15,0.08,"CC(=O)c1ccc(C(=O)NCc2cc(-c3nn(CC(O)CN4CCC(N5CCCC5=O)CC4)c4c3CN(S(C)(=O)=O)CC4)ccc2C(F)(F)F)s1 (stereo not drawn) [Example 109, 5-Acetyl-thiophene-2-carboxylic acid 5-(1-{2-hydroxy-3-[4-(2-oxo-pyrrolidin-1-yl)-piperidin-1-yl]-propyl}-5-methanesulfonyl-4,5,6,7-tetrahydro-1H-pyrazolo[4,3-c]pyridin-3-yl)-2-trifluoromethyl-benzylamide]"

# Reference: patent US20080269241A1, “BICYCLIC AMINOPROPYL TETRAHYDRO-PYRAZOLO-PYRIDINE MODULATORS OF CATHEPSIN S” (priority 2007, published 2008)
